BindingDB's records for patent US20260014125 (Haihe Biopharma, 2026)

molecular target: S-adenosylmethionine synthase isoform type-2 (Homo sapiens, UniProt P31153); experiment: Enzymatic Activity of MAT2A
Protocol: 1. 1×Assaybuffer (buffer composition: Tris, KCl, MgCl2, BSA, Brij35, and EDTA; the solvent was ultrapure water) was prepared. MAT2A his-tag enzyme solution (containing 1.3 μL of MAT2A enzyme and 998.7 μL of 1×Assaybuffer per 1000 μL) and substrate mixed solution (containing 5 μL of ATP, 1.3 μL of L-methionine, and 993.7 μL of 1×Assaybuffer per 1000 μL) were prepared using 1×AssayBuffer.2. Preparation of compound concentration gradient: The test compound was tested with a starting concentration of 10 μM, and 10 […] concentrations were set according to a 3-fold dilution. Specifically, firstly, the compound was diluted into 10 different concentrations of series solutions in a 384 well plate (with final detection concentrations of 10, 3.33, 1.11, 0.37, 0.123, 0.041, 0.0137, 0.0046, 0.0015, and 0.0005 μM), and then 250 nL of the above series solutions was transferred to the 384 well reaction plate using an ultrasonic pipetting system Echo550 for later use. 250 nL of 100% DMSO was added into a negative control well and a positive control well, respectively. Double well test.3. 15 μL of MAT2A his-tag enzyme solution was added into both the compound well and the positive control well; and 15 μL of 1×Assaybuffer was added into the negative control well.4. The 384 well plate reaction plate was centrifuged at 1000 rpm for 60 seconds, shaken, mixed well, and incubated for 15 minutes. 10 μL of substrate mixed solution was added into each experimental well of the 384 well reaction plate to initiate the reaction.5. The 384 well reaction plate was centrifuged at 1000 rpm for 60 seconds, shaken, mixed well, and incubated for 150 minutes.6. 50 μL of enzyme reaction termination solution Biomol was added into all experimental wells of the 384 well reaction plate to terminate the reaction, centrifuged at 1000 rpm for 60 seconds, and incubated for 15 minutes. OD620 was Data analysis: the inhibition rate (%) of the compound was calculated and fitted to obtain the IC50 of the tested compound.

S-adenosylmethionine synthase isoform type-2, sequence (P31153 whole entry, canonical isoform): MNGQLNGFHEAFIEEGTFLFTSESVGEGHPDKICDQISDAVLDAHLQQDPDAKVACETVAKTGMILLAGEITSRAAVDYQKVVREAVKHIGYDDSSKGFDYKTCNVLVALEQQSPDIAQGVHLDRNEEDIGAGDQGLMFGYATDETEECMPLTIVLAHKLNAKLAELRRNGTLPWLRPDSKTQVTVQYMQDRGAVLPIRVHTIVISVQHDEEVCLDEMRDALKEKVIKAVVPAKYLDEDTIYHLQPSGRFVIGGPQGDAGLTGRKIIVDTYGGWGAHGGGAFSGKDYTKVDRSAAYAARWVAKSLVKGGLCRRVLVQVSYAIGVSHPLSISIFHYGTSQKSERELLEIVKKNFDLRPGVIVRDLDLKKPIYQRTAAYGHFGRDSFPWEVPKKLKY

| SMILES | IC50 [nM] |
| --- | --- |
| CCOc1c(-c2ccc(OC(F)F)cc2)c(=O)n(-c2ccc3ncnn3c2)c2[nH]ncc12 [US20260014125, Compound 25] | 14 |
| CCOc1c(-c2ccc(OC(F)F)cc2)c(=O)n(-c2ccn3nccc3c2)c2[nH]ncc12 [US20260014125, Compound 23] | 9.8 |
| CCOc1c(-c2ccc(OC(F)F)cc2)c(=O)n(-c2ccc3nccn3c2)c2[nH]ncc12 [US20260014125, Compound 24] | 15.9 |
| CCOc1c(-c2ccc(OC(F)F)cc2)c(=O)n(-c2ccc3nn(CCOC)cc3c2)c2[nH]ncc12 [US20260014125, Compound 21] | 8.3 |
